# Columns and labels:
# [1] = Solubility of tadalafil in aqueous media and solvents; precipitation on adding water; assay type: physicochemical
# Text: Tadalafil is soluble in 2-pyrollidone, but the use of 2-pyrollidone as a solvent is limited by color formation, unpalatable taste, and incompatibility with plastic components of metered-dose delivery systems. […] Compatibility with the pumps was improved with water in an amount of at least 10% weight in volume.
# [2] = cited from earlier work
# [3] = cited from earlier work; remark: listed apart in the source
smiles,measurement,setting,value
"CN1CC(=O)N2[C@H](c3ccc4c(c3)OCO4)c3[nH]c4ccccc4c3C[C@@H]2C1=O [Tadalafil, (2R,8R)-2-(1,3-benzodioxol-5-yl)-6-methyl-3,6,17-triazatetracyclo[8.7.0.0^3,8.0^11,16]heptadeca-1(10),11,13,15-tetraene-4,7-dione]",solubility in 2-pyrollidone,[1]; 2-pyrollidone,soluble
same,solubility in propylene carbonate,[1]; propylene carbonate,soluble
same,solubility in aqueous media,[2],insoluble
same,bioavailability in humans,[3],80%

# From US12599554B2, “Pharmaceutical formulations comprising tadalafil” (KYDES PHARMACEUTICALS, LLC, priority 2020, dated 2026)
